Among the data in patent US20220380342A1, “BIPHENYL DERIVATIVES FOR BLOCKING PD-1/PD-L1 INTERACTION, PREPARATION METHOD THEREFOR AND USE THEREOF” (Abbisko Therapeutics Co., Ltd., priority 2019, published 2022) are IC50 and EC50 values, retold here.

In experiment [1] the target is T1, interaction between PD-1 and PD-L1 (Homo sapiens, UniProt Q9NZQ7).
T1 construct: purchased Cisbio 64ICP01PEG or 64ICP01PEH
Description: PD1-PDL1 HTRF binding activity test. The following applies: Cisbio PD-1/PD-L1 binding assay kit; percent inhibition vs DMSO. Here is the method:
The effect of compounds of the examples of the present invention on the interaction between PD-1 and PD-L1 was determined by the PD-1/PD-L1 binding assay kit from Cisbio (#64ICP01PEG or 64ICP01PEH). The detailed experimental process was as follows:
1) Pre-diluted compound solution, 4 μL of Tag1-PD-L1 and 4 μL of Tag2-PD1 were added to each well of a 384-well plate;
2) After the mixture was incubated at room temperature for 15 min, 5 μL of anti-Tag1-Eu3+ antibody and 5 μL of anti-Tag2-XL665 antibody were then added;
3) After incubated for 2 hrs at room temperature or overnight at 4° C., plates were read on Envision of Perkin Elmer; and readings at 665 nm and 620 nm were recorded, and the ratio of the two readings was taken as a reading for each well;
4) The reading of each well after compound treatment was compared with the reading of DMSO treated wells to obtain the percent inhibition of the compound; and
5) IC50 values of compounds of the examples of the present invention were determined by non-linear regression analysis of percent inhibition at different compound concentrations.
A general note: TR-FRET usually uses a lanthanide donor and a delayed reading to cut background.

Experiment [2] addresses T2, interaction between PD-1 and PD-L1 expressed on cell surfaces (Jurkat/NF-κB-luc/PD1 cells cocultured with Raji-PD-L1 cells) (Homo sapiens, UniProt Q9NZQ7).
T2 construct: expressed in transfected cells; host or cells: Raji cells (PD-L1); Jurkat cells (PD-1, NF-κB-luc reporter)
In words: Jurkat reporter gene cellular assay. In kind it is cell-based. Conditions: OKT3 1 μg/mL stimulation, 6 hrs, activation fold vs DMSO. Here is the method:
The effect of compounds of the examples of the present invention on the interaction between PD-1 and PD-L1 expressed on cell surfaces, and the related influence on T cell functions, were determined by a Jurkat reporter gene cellular assay.
Briefly, the reporter gene plasmid of NF-κB-luc and the plasmid of human PD-1 were transfected into Jurkat cells to establish a stably transfected cell line capable of stably expressing both PD-1 and NF-κB-Luc reporter genes; the expression level of PD-1 on the cell surface was confirmed by flow cytometry; and the expression of the reporter gene was confirmed via the response of the reporter gene stimulated by OKT-3 and Raji cells.
In addition, the plasmid of human PD-L1 was transfected into Raji cells to obtain a cell line capable of stably expressing PD-L1. Jurkat/NF-κB-luc/PD1 cells and Raji-PD-L1 cells were then cocultured and stimulated with OKT-3. On this basis, the compounds were added, and the enhancement of the signal pathway of T cell activation by the inhibitory effect of the compounds on the interaction between PD-1 and PD-L1 was evaluated by readings of reporter gene responses. The specific experimental process was as follows:
1) 30 μL of compound or antibody solution was added to each well of a white 96-well plate (Corning, 3610) at different diluted concentrations, and 10 μL of OKT3 (Biolegend, 317326) was then added (the final concentration of OKT3: 1 μg/mL);
2) 20 μL of Raji-PD-L1 cell suspension was added to each well with 5*10^4 cells for each well, and was incubated in an incubator for 20 min;
3) 20 μL of Jurkat/NF-Kb-luc/PD-1 cell suspension was added to each well with 5*10^4 cells for each well, and was well mixed, and 6 hrs later, Bright-glo (Promega, E2620) was applied and plates were read on Envision;
4) The reading of each well treated with the compound was compared with the reading of each well treated with DMSO to obtain the activation fold of the compound; and
5) EC50 values of compounds of the examples of the present invention were determined by non-linear regression analysis of activation folds at different compound concentrations.
On the technique in general: Reporter assays use an easily measured gene product as a stand-in for the process of interest.

T2 sequence (Q9NZQ7 19-290): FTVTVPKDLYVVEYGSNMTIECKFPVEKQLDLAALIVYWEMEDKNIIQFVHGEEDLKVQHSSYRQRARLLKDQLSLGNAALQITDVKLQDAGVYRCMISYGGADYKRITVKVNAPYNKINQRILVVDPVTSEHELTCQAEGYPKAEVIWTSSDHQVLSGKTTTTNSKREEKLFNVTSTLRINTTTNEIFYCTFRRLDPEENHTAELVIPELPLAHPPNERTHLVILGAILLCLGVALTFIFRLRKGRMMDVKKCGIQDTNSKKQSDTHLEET
T1 sequence (Q9NZQ7 19-238 limits assumed): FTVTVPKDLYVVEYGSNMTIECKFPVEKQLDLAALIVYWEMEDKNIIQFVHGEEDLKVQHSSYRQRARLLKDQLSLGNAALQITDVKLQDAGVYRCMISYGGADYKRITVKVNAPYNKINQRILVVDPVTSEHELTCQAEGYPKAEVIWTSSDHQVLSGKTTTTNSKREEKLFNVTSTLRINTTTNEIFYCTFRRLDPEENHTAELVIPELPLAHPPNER

Regarding `Cc1c(NC(=O)c2cc(C3CC3)c(CN[C@H](C)CO)cn2)cccc1-c1cccc(NC(=O)c2cc(C3CC3)c(CN[C@H](CO)C(=O)O)cn2)c1C` [Example 38, ((4-cyclopropyl-6-((3′-(4-cyclopropyl-5-((((R)-1-hydroxypropan-2-yl)amino)methyl)picolinamido)-2,2-dimethyl-[1,1′-biphenyl]-3-yl)carbamoyl)pyridin-3-yl)methyl)-D-serine], the IC50 (commonly the concentration needed to halve the response being measured) in experiment [1] worked out at 0.67 nM. The EC50 (commonly the concentration that produces a half-maximal response) in experiment [2] is 37.3 nM.
The like results for `CCOC(=O)[C@@H](CO)NCc1cnc(C(=O)Nc2cccc(-c3cccc(NC(=O)c4cc(C5CC5)c(CN[C@H](C)CO)cn4)c3C)c2C)cc1C1CC1` [Example 38-1, Ethyl ((4-cyclopropyl-6-((3′-(4-cyclopropyl-5-((((R)-1-hydroxypropan-2-yl)amino)methyl)picolinamido)-2,2′-dimethyl-[1,1′-biphenyl]-3-yl)carbamoyl)pyridin-3-yl)methyl)-D-serinate] were, in that order, 4.77 nM and 219 nM.
As for `Cc1c(NC(=O)c2cc(C3CC3)c(CN[C@@H](C)CO)cn2)cccc1-c1cccc(NC(=O)c2cc(C3CC3)c(CN[C@H](CO)C(=O)O)cn2)c1C` [Example 39, ((4-cyclopropyl-6-((3′-(4-cyclopropyl-5-((((S)-1-hydroxypropan-2-yl)amino)methyl)picolinamido)-2,2′-dimethyl-[1,1′-biphenyl]-3-yl)carbamoyl)pyridin-3-yl)methyl)-D-serine], in experiment [1], the IC50 is 1.89 nM. The EC50 in experiment [2] is 36 nM.
Take `CCOC(=O)[C@@H](CO)NCc1cnc(C(=O)Nc2cccc(-c3cccc(NC(=O)c4cc(C5CC5)c(CN[C@@H](C)CO)cn4)c3C)c2C)cc1C1CC1` [Example 39-1, Ethyl ((4-cyclopropyl-6-((3′-(4-cyclopropyl-5-((((S)-1-hydroxypropan-2-yl)amino)methyl)picolinamido)-2,2′-dimethyl-[1,1′-biphenyl]-3-yl)carbamoyl)pyridin-3-yl)methyl)-D-serinate]: in experiment [1], the IC50 was determined as 3.22 nM. In addition, in experiment [2], the EC50 was 264 nM.
For `Cc1c(NC(=O)c2cc(C3CC3)c(CN[C@H]3CCC[C@@H]3O)cn2)cccc1-c1cccc(NC(=O)c2cc(C3CC3)c(CN[C@H](CO)C(=O)O)cn2)c1C` [Example 40, ((4-cyclopropyl-6-((3′-(4-cyclopropyl-5-((((1S,2S)-2-hydroxycyclopentyl)amino)methyl)picolinamido)-2,2′-dimethyl-[1,1′-biphenyl]-3-yl)carbamoyl)pyridin-3-yl)methyl)-D-serine], in experiment [1], the IC50 is 1.68 nM. The concentration for a half-maximal effect (EC50) in experiment [2] worked out at 39.2 nM.
Regarding `Cc1c(NC(=O)c2cc(C3CC3)c(CNC3CCOCC3)cn2)cccc1-c1cccc(NC(=O)c2cc(C3CC3)c(CN[C@H](CO)C(=O)O)cn2)c1C` [Example 51, ((4-cyclopropyl-6-((3′-(4-cyclopropyl-5-(((tetrahydro-2H-pyran-4-yl)amino)methyl)picolinamido)-2,2′-dimethyl-[1,1′-biphenyl]-3-yl)carbamoyl)pyridin-3-yl)methyl)-D-serine], in experiment [1], the IC50 was determined as 2.05 nM. The compound further displayed an EC50 in experiment [2] of 87.1 nM.
Consider `Cc1c(NC(=O)c2cc(C3CC3)c(CN[C@H](CO)C(=O)O)cn2)cccc1-c1cccc(NC(=O)c2cc(C3CC3)c(CN3CC[C@@H](O)C3)cn2)c1C` [Example 53, ((4-cyclopropyl-6-((3′-(4-cyclopropyl-5-(((R)-3-hydroxypyrrolidin-1-yl)methyl)picolinamido)-2,2′-dimethyl-[1, 1′-biphenyl]-3-yl)carbamoyl)pyridin-3-yl)methyl)-D-serine], for which the IC50 in experiment [1] came to 3.61 nM. In addition, the EC50 in experiment [2] is 86.8 nM.
For `CCOC(=O)[C@@H](CO)NCc1cnc(C(=O)Nc2cccc(-c3cccc(NC(=O)c4cc(C5CC5)c(CN5CC[C@@H](O)C5)cn4)c3C)c2C)cc1C1CC1` [Example 53-1, Ethyl ((4-cyclopropyl-6-((3′-(4-cyclopropyl-5-(((R)-3-hydroxypyrrolidin-1-yl)methyl)picolinamido)-2,2′-dimethyl-[1,1′-biphenyl]-3-yl)carbamoyl)pyridin-3-yl)methyl)-D-serinate] the same measures were 5.77 nM and 258 nM.
For `Cc1c(NC(=O)c2cc(C3CC3)c(CN[C@H](CO)C(=O)O)cn2)cccc1-c1cccc(NC(=O)c2cc(C3CC3)c(CN3CCC[C@H]3CO)cn2)c1C` [Example 54] the same measures were 0.91 nM and 62.3 nM.
In experiment [1], `Cc1c(NC(=O)c2cc(C3CC3)c(CN[C@H](CO)C(=O)O)cn2)cccc1-c1cccc(NC(=O)c2cc(C3CC3)c(CN3CCC[C@@H]3CO)cn2)c1C` [Example 55] came in with an IC50 of 3.18 nM. In addition, the EC50 in experiment [2] is 99.5 nM.
For `Cc1c(NC(=O)c2cc(C3CC3)c(CN[C@@](C)(CO)C(=O)O)cn2)cccc1-c1cccc(NC(=O)c2cc(C3CC3)c(CN[C@@](C)(CO)C(=O)O)cn2)c1C` [Example 67, (2S,2′S)-2,2′-((((((2,2′-dimethyl-[1,1′-biphenyl]-3,3′-diyl)bis(azanediyl))bis(carbonyl))bis(4-cyclopropylpyridine-6,3-diyl))bis(methylene))bis(azanediyl))bis(3-hydroxy-2-methylpropanoic acid)] the same measures were 0.61 nM and 19.7 nM.
